The target of one experiment is T1, human sPLA2 hG-IIA (Homo sapiens, UniProt P14555).
T1 sequence (P14555 21-144): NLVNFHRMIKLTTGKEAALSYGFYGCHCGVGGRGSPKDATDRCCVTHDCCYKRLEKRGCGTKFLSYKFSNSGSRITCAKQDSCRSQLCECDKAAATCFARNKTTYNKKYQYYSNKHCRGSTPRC
Briefly: Inhibition of sPLA2 activity. The note with it: IC50 ± standard deviation; for IC50: IC50 sPLA2(IIA). Type of experiment: biochemical.

The next experiment addresses α-glucosidase (Saccharomyces cerevisiae, UniProt P53341). Briefly: α-Glucosidase inhibitory activity. Type of experiment: biochemical.
Experiment [1] deals with human blood paraoxonase-1 (PON1). The note with it: cited from earlier work.

The structures appear in SMILES notation.

A word on the IC50: it is the concentration that gives 50% inhibition. A higher IC50 goes with weaker potency.

α-glucosidase, sequence (P53341 whole entry): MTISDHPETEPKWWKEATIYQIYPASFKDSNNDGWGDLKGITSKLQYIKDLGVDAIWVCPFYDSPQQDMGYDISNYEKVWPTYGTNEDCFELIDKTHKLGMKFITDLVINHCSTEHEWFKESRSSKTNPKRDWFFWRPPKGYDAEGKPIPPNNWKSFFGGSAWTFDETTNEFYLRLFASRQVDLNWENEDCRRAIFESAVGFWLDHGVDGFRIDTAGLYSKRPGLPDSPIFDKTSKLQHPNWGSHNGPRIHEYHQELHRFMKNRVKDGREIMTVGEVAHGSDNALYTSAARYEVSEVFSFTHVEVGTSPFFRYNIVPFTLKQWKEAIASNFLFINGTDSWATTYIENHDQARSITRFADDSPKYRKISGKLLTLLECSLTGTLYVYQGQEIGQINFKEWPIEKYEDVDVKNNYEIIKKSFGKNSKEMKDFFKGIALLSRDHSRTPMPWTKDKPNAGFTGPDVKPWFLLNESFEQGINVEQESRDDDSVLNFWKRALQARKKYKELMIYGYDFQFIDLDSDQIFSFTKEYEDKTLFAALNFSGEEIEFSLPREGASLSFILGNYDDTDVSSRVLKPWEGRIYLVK

`Cc1ccc(S(=O)(=O)NNc2nc3ccccc3nc2Cl)cc1` [Compound 5b, N’-(3-chloroquinoxalin-2-yl)-4-methylbenzenesulfonohydrazide]: the IC50 at human sPLA2 hG-IIA turned out to be 1520 ± 212 nM; at α-glucosidase, 2790 ± 500 nM. `O=S(=O)(NNc1nc2ccccc2nc1Cl)c1ccc(C(F)(F)F)cc1` [Compound 5c, N’-(3-chloroquinoxalin-2-yl)-4-(trifluoromethyl) benzenesulfonohydrazide]: the concentration for half-maximal inhibition (IC50) at human sPLA2 hG-IIA was 2590 ± 292 nM; against α-glucosidase it was 29400 ± 532 nM. For `O=S(=O)(NNc1nc2ccccc2nc1Cl)c1ccc(Br)cc1` [Compound 5d, 4-Bromo-N’-(3-chloroquinoxalin-2-yl)benzenesulfonohydrazide] the same measures were 2120 ± 132 nM and 13300 ± 263 nM. For `O=S(=O)(NNc1nc2ccccc2nc1NNS(=O)(=O)c1ccccc1)c1ccccc1` [Compound 6a, N’,N’’’-(quinoxaline-2,3-diyl)dibenzenesulfonohydrazide] the same measures were 47.5 ± 0.8 nM and 3150 ± 32 nM. For `Cc1ccc(S(=O)(=O)NNc2nc3ccccc3nc2NNS(=O)(=O)c2ccc(C)cc2)cc1` [Compound 6b, N’,N’’’-(quinoxaline-2,3-diyl)bis(4-methylbenzenesulfonohydrazide)] the same measures were 76.5 ± 1.7 nM and 960 ± 112 nM.

As to `O=S(=O)(NNc1nc2ccccc2nc1NNS(=O)(=O)c1ccc(C(F)(F)F)cc1)c1ccc(C(F)(F)F)cc1` [Compound 6c, N’,N’’’-(quinoxaline-2,3-diyl)bis(4-trifluoromethylbenzenesulfonohydrazide)], the IC50 against human sPLA2 hG-IIA was 2240 ± 1050 nM; at α-glucosidase, 95.3 ± 5.4 nM. Take `O=S(=O)(NNc1nc2ccccc2nc1NNS(=O)(=O)c1ccc(Br)cc1)c1ccc(Br)cc1` [Compound 6d, N’,N’’’-(quinoxaline-2,3-diyl)bis(4-bromobenzenesulfonohydrazide)]: on human sPLA2 hG-IIA, the half-maximal inhibitory concentration (IC50) was 4930 ± 241 nM and the “IC50 sPLA2(IIA)” value is on record as “high micromolar”. This molecule displayed an IC50 on α-glucosidase of 8290 ± 367 nM. `COc1ccc(OC)c(C(O)CNC(=O)CN)c1` (stereo not shown) [Midodrine]: the “type of inhibition of PON1” value in experiment [1] is reported as “competitive inhibition”. On to `CC(C)NCC(O)COc1ccc(CC(N)=O)cc1` (stereo not shown) [atenolol], for which the “type of inhibition of PON1” value in experiment [1] is listed as “non-competitive inhibition”. Consider `CC(C)(C)NCC(O)COc1cccc2c1CC(O)C(O)C2` (stereo not shown) [nadolol], for which, in experiment [1], the “type of inhibition of PON1” value was “competitive inhibition”. In the case of `CC(C)NCC(O)COc1cccc2[nH]ccc12` (stereo not shown) [pindolol], the “type of inhibition of PON1” value in experiment [1] is given as “non-competitive inhibition”.
